Results: patent US8673977B2, “Choline salts of succinic acid for the treatment of depression, anxiety, schizophrenia, sleep disorder, and epilepsy” (priority 2008, dated 2014)
Like-named read-outs stand apart in the source and are kept apart here.

Assays:
young male CD1 mice [1] = conditions: mean±SEM, scored during 6 min
Protocol: (A) In the forced swim test, young male CD1 mice, singly housed, were used. Mice were treated i.p. with saline (control) or 25 mg/kg compounds (I) or (II) for 7 days once-a-day and tested at 8th day. In the reference group, mice were treated i.p. with 10 mg/kg Imipramine 30 min prior the swimming test. Forced swim test was done in a glass cylinder 17 cm diameter, water height 13 cm (7 cm to the edge of a cylinder) filled with water at ambient temperature. Animals were scored during 6 min. The latency of the first floating episode was accepted as a measure of forced swim behavior. Statistical analysis was done using ANOVA and Mann-Whitney test as a post-hoc analysis.

young male CD1 mice [2] = conditions: mean±SEM, n=20
Protocol: (B) In the chronic stress depression model, young male CD1 mice, singly housed, were used. […] Stress procedure was used for 10 days. In the reference group, mice received Imipramine orally 8 mg/kg per day for 7 days prior the stress and then in a course on entire 10-days-stress-procedure. Animals (n=20 per group) were tested on a sucrose preference at 10th day of the stress procedure. Statistical analysis was done using ANOVA and Mann-Whitney test as a post-hoc analysis. Data are presented in Table 2 as mean±SEM of a percentage of sucrose preference.

[3] = tested on: rats raised in social isolation (ISO); conditions: mean±SEM; socially isolated rats, i.p. 25 mg/kg for 7 days once-a-day; 80 dB prepulse, 110 dB pulse, prepulse latency 100 milliseconds
Protocol: Rats were treated for 7 days once-a-day with i.p. 25 mg/kg compound II or saline (control).

[4] = tested on: mice with seizures induced by pentylenetetrazol; conditions: i.p. 10 mg/kg for 7 days once-a-day, pentylenetetrazol administered
Protocol: Effect of the treatment of epilepsy with compounds of the invention was assessed in mice with seizures induced by pentylenetetrazol. Loscher et al., Epilepsy Res 1991, 8:171-189. Mice were treated for 7 days once-a-day with i.p. 10 mg/kg compound II or saline (control). Pentylenetetrazol was administered.

Stressed mice = conditions: mean±SEM; stressed mice from Example 2 (i.p. 25 mg/kg for 7 days prior stress); scored during 5 min
Protocol: (B) In the chronic stress depression model, young male CD1 mice, singly housed, were used. […] Stress procedure was used for 10 days.
Effect of the treatment of anxiety with compounds of the invention was assessed in rodents in light/dark transition test. Stressed mice from the Example 2 were tested in a dark/light box as described by Crawley et al., Pharmacol Biochem Behav 13, 167-70 (1980). Animals were scored during 5 min for (i) total time spent in light box and (ii) number of exits. […] Data are presented in Table 3 as mean±SEM of (i) total time spent in light box and (ii) number of exits.

Rats = conditions: rats pretreated i.p. 25 mg/kg for 7 days once-a-day; at day 8, 10 mg/kg caffeine
Protocol: Effect of the treatment of sleep disorder (insomnia) with compound II of the present invention was assessed in caffeine-induced model of insomnia. Rats were treated for 7 days once-a-day with i.p. 25 mg/kg compound II or saline (control).

[5] = i.p. 25 mg/kg for 7 days once-a-day, tested at 8th day

Question: For `C[N+](C)(C)CCO.O=C([O-])CCC(=O)O` [Compound (I), monocholine salt of succinic acid], which “Latency of the first floating episode” value (young male CD1 mice [1]; [5]) is on record?
Answer: Its value is 117 ± 18 s.

Question: For `C[N+](C)(C)CCO.C[N+](C)(C)CCO.O=C([O-])CCC(=O)[O-]` [Compound (II), dicholine salt of succinic acid], which Sucrose preference (young male CD1 mice [2]; i.p. 25 mg/kg for 7 days once-a-day prior the onset of stress, tested at 10th day of stress) is on record?
Answer: The Sucrose preference was 72 ± 3 %.

Question: What about the Prepulse inhibition [3] of the same compound?
Answer: Its Prepulse inhibition is 51 ± 9 %.

Question: What about the “seizures as compared to control” value [4] of the same compound?
Answer: The value was “significantly decreases seizures”.

Question: What about the “Latency of the first floating episode” value (young male CD1 mice [1]; [5]) of the same compound?
Answer: The value was 140 ± 11 s.

Question: What about the Number of exits (Stressed mice) of the same compound?
Answer: The Number of exits was 4.8 ± 0.6.

Question: What about the “Time (total time spent in light box)” value (Stressed mice) of the same compound?
Answer: Its value is 250 ± 11 s.

Question: What about the “sleep onset latency (SOL) after caffeine as compared to vehicle” value (Rats) of the same compound?
Answer: Its value is “caffeine did not prolonged SOL”.

Question: `CN(C)CCCN1c2ccccc2CCc2ccccc21` [Imipramine, reference compound] was tested. Which Sucrose preference (young male CD1 mice [2]; reference group, orally 8 mg/kg per day for 7 days prior the stress and during 10-days stress, tested at 10th day) did it give?
Answer: Its Sucrose preference is 75 ± 4 %.

Question: What about the “Latency of the first floating episode” value (young male CD1 mice [1]; reference group, i.p. 10 mg/kg 30 min prior the swimming test) of the same compound?
Answer: Its value is 60 ± 26 s.
